Values of other authors as cited in PMC6966871 (Journal of Hematology & Oncology, 2020).

What was measured:
[1] = test system: METex14-altered NSCLC; set-up: method as in doi:10.1200/JCO.2016.34.15_suppl.108; conditions: METex14-altered NSCLC patients; cited from earlier work
[2] = set-up: method as in PMID 30724423; conditions: cited from earlier work
[3] = test system: EGFR-mutant NSCLC; set-up: method as in PMID 30156984; conditions: in combination with gefitinib, EGFR-mutant NSCLC progressed on previous gefitinib; cited from earlier work

## C[C@@H](Oc1cc(-c2cnn(C3CCNCC3)c2)cnc1N)c1c(Cl)ccc(F)c1Cl [Crizotinib]
[1]
  unconfirmed response rate: up to 44%

## CNC(=O)c1ccc(-c2cnc3ncc(Cc4ccc5ncccc5c4)n3n2)cc1F [capmatinib]
[2]; 21 patients
  patients with one or more dose interruptions: 47.7%
[2]
  AE: decreased appetite: 41%
  AE: diarrhea: 25%
  AE: increased blood creatinine: 52%
  AE: nausea: 48
  AE: vomiting: 39%
  AEs leading to discontinuation: 9%
  adverse events leading to dose adjustment and/or interruption: 59%
[2]; nine patients
  patients with dose interruption only once: 20.5%
[3]
  overall ORR: 27%
